# Test results from ChEMBL document CHEMBL1129300, “Conformationally constrained analogues of diacylglycerol. 12. Ultrapotent protein kinase C ligands based on a chiral 4,4-disubstituted heptono-1,4-lactone template” (J Med Chem, 1996).
# Molecular target: Protein kinase C alpha type (Homo sapiens, UniProt P17252)
# Assay: Displacement of [3H-20]-PDBU from recombinant Protein kinase C alpha
row,SMILES,Ki
1,CCCCCCCC/C=C\CCCCCCCC/C=C1\C[C@](/C=C/C(=O)OC)(CO)OC1=O,20 nM
2,CCCCCCCC/C=C\CCCCCCCC/C=C1/C[C@](/C=C/C(=O)OC)(CO)OC1=O,11 nM
3,CCCCCCCC/C=C\CCCCCCCC/C=C1/C[C@@](CO)(COC(C)=O)OC1=O,12 nM
4,CCCCCCCC/C=C\CCCCCCCC/C=C1\C[C@@](CO)(COC(C)=O)OC1=O,13 nM
